The values that follow come from patent publication US20260226044A1, “PREPARATION OF AN S1P RECEPTOR MODULATOR” (Oppilan Pharma Limited, priority 2023, published 2026).

The target of this assay is T1, human S1P1 (Homo sapiens, UniProt P21453).
T1 construct: CHO-K1 Gαqi5 cells expression full-length human S1P1; expressed in transfected cells; host or cells: CHO-K1 Gαqi5 cells (membranes)
Put plainly: GTPγS binding assay (scintillation proximity assay, S1P1 membranes). The note with it: membranes from CHO-K1 Gαqi5 cells expressing full-length human S1P1; GTPγ35S; 60 minutes incubation. It is filed as biochemical. The procedure: Example 4: GTPyS Binding Assay
S1P1 membrane is prepared from CHO-K1 Gαqi5 cells expression full-length human S1P1. Scintillation proximity assay (SPA) is performed by incubating membranes, GTPγ^35S, and compounds at various concentrations for 60 minutes. Wheat germ agglutinin-coated SPA beads are added and incubated for 60 minutes before centrifugation and scintillation counting.
In general terms: Binding of GTPγS marks nucleotide exchange on a G protein.

As usually defined, the EC50 is the concentration giving half of the maximal effect. A higher EC50 goes with a need for much substance.

Some results are limits rather than exact numbers.

T1 sequence (P21453 whole entry): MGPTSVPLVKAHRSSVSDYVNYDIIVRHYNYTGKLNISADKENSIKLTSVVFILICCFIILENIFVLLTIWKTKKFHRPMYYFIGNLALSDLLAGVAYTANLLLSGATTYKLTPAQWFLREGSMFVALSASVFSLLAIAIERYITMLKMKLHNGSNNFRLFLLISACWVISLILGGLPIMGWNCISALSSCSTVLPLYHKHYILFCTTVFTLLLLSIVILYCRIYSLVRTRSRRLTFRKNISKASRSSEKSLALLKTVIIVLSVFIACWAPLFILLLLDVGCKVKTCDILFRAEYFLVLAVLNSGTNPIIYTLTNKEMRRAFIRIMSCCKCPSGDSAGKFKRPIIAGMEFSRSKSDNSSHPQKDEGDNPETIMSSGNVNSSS

Regarding `O=C1CC[C@@H](Oc2cc(Cl)c(-c3noc(-c4cn5cc(C(F)(F)F)cc(Cl)c5n4)n3)cc2Cl)CN1` [Compound 1, (R)-5-(2,5-dichloro-4-(5-(8-chloro-6-(trifluoromethyl)imidazo[1,2-a]pyridin-2-yl)-1,2,4-oxadiazol-3-yl)phenoxy)piperidin-2-one], the EC50 was < 1000 nM.
